Results on two molecules are retold here after patent publication US12617770B2, “IRAK inhibitor and preparation method therefor and use thereof” (WUHAN CREATERNA SCIENCE AND TECHNOLOGY CO., LTD., priority 2019, dated 2026).

Data set [1] is described as follows: Plasma protein binding (PPB), equilibrium dialysis, rat plasma. The settings on record: 5 h at 37° C., read-out: Plasma protein binding (Bound %) Rat (converted). Type of data set: in vitro ADME. As to the method: (§1) The experiment is intended to determine plasma protein binding (PPB) data of the test compounds disclosed herein.
(§2) In the PPB experiment, the final administration matrix contained the test compound or a reference compound with a concentration of 1 μM and DMSO with a content of 0.2%.
(§3) Collecting samples in initial time: 25 μL of the matrix containing the compound was added into a blank 96-well collecting plate, and the plate was stored at −20° C.
(§4) An equilibrated dialysis device was prepared. 100 μL of buffer was added to the receiving side of the equilibrium dialysis plate. Then 100 μL of the administration matrix containing the compound or the reference compound was added into an administration side of the equilibrium dialysis plate. The prepared equilibrium dialysis plate was placed in a 37° C. shaker to be shaken for 5 h at 60 rpm.
(§5) Sample was prepared at the end of cultivation (5 h): Preparing sample in the receiving side: 25 μL of sample from a receiving side was taken out and placed in a 96-well sample collecting plate, and 25 μL of a corresponding matrix (blank plasma) was added for mixing: 200 μL of ACN containing an internal standard was added, shaken for 10 minutes at 600 rpm, and centrifuged at 5594 g for 15 min.
(§6) Preparing sample in the administration side: 25 μL of the sample containing test compound and reference compound from the administration side was taken out and 25 μL of a blank buffer was added for mixing; 200 μL of ACN containing an internal standard was added, shaken for 10 minutes at 600 rpm, and centrifuged at 5594 g for 15 min.
(§7) Preparing sample in initial time: the sample containing test compound and reference compound was re-melted at 37° C. in initial time and then mixed with the corresponding matrix (blank buffer) in the same volume (25 μL); 200 μL of ACN containing an internal standard was added, shaken for 10 minutes at 600 rpm, and centrifuged at 5594 g for 15 min.
(§8) After all the samples were centrifuged, 50 μL of a supernatant was taken and added into 50 μL of ultrapure water for mixing, and the samples were sent to liquid chromatography-mass spectrometry.
Background: In equilibrium dialysis free small molecules cross a membrane that holds back macromolecules.

Data set [2] deals with T1, hERG potassium ion channel (Homo sapiens, UniProt Q12809).
T1 construct: expressed in transfected cells; host or cells: HEK-293
The data set is described as follows: hERG whole-cell patch clamp in HEK-293 cell line stably expressing hERG. Type of data set: cell-based. The note with it: HEK-293 cells stably expressing hERG, pH 7.4, HEK-293 cells expressing hERG, mean ± spread. As to the method:
The working solutions of the test compounds were ultrasonically treated for 20 min.
Patch clamping: Under an inverted microscope, recording electrodes were controlled by micromanipulator to contact with the cell. A negative voltage was applied to create a G-omega shaped connection. After forming the G-omega shaped connection, a rapid capacitance compensation was given. Under the continuous negative voltage, the cell membrane was ruptured to form a whole-cell recording configuration. In the whole-cell recording configuration, slow capacitance compensation was given, and the values of membrane capacitance and series resistance were recorded. […]
The cover glasses planted with cells were placed in the recording chamber of an inverted microscope. […] The current detected in a cell in the negative control was used as the background for the cell. […]
[formula] Basic statistics were calculated for each concentration, including mean, standard deviation (SD), standard error (SE), and replicates (n). The dose-dependent curve was fitted with the following equation and the half maximal inhibitory concentration (IC50) of the test compounds was calculated: […]
For orientation: Block of hERG is tested as a sign of cardiac risk.

For another data set, the system named is TNF-α release. The data set is described as follows: Inhibition of cytokine TNF-α release in LPS-induced Balb/c female mice. Type of data set: in vivo. The note with it: oral gavage 16 h before LPS (i.p. 0.2 mg/kg); serum 1.5 h after stimulation. The method, then: Female Balb/c mice were randomized into groups, each containing 4 mice, including a control+vehicle group, a model+vehicle group, a model+reference group and model+compound groups. The control animals received an intraperitoneal injection of normal saline (10 mL/kg) and the model animals received LPS stimulation (Sigma CAT #L2630, i.p., 10 mL/kg, 0.2 mg/kg). To the test compounds, DMSO, Solutol and 10 mM PBS were sequentially added to prepare a solution or suspension of required concentration for administration. For the vehicle, DMSO, Solutol and 10 mM PBS were mixed in a volume ratio of 5:15:80. The animals were administered through oral gavage (10 mL/kg) 16 h before LPS (or saline) stimulation at predetermined doses, and euthanized with CO2 at 1.5 h after the stimulation for cardiac blood collection. The whole blood was not anticoagulated, incubated in wet ice for 1.5 h, and centrifuged at 2000×g at 4° C. for 10 min to separate the serum. Serum was frozen at −80° C. for TNF-α assay. Quantification of TNF-α was done by TNF-α ELISA kit according to the manufacturer's instructions. The readings of absorbance at A450 were measured with a microplate reader SpectraMax i3x (Molecular Device) for calculating the inhibition of the compounds, and IC50 was calculated with GraphPad Prism 7.0 software. […] In particular, some exemplary compound inhibition rate values are as follows: […]

Data set [3] is described as follows: Pharmacokinetic study, single oral gavage dosing. The settings on record: mouse, 40 mg/kg, 40 mpk, 15% solutol HS15 + 85% PBS, ICR mice, plasma; for AUC(0-t): read-out: Area under curve AUC0-t; for AUC(0-inf): read-out: Area under curve AUC0-∞; for MRT: read-out: Average retention time MRT; for half-life: read-out: Half life t1/2 (converted); for Cmax: read-out: Peak concentration Cmax; for Tmax: read-out: Time to peak tmax. It counts as in vivo.

Data set [4] is described as follows: Plasma protein binding (PPB), equilibrium dialysis, human plasma. Type of data set: in vitro ADME. The note with it: 5 h at 37° C., read-out: Plasma protein binding (Bound %) Human (converted). The method, then: as §1, §2, §3, §4, §5, §6, §7, §8

T1 sequence (Q12809 whole entry): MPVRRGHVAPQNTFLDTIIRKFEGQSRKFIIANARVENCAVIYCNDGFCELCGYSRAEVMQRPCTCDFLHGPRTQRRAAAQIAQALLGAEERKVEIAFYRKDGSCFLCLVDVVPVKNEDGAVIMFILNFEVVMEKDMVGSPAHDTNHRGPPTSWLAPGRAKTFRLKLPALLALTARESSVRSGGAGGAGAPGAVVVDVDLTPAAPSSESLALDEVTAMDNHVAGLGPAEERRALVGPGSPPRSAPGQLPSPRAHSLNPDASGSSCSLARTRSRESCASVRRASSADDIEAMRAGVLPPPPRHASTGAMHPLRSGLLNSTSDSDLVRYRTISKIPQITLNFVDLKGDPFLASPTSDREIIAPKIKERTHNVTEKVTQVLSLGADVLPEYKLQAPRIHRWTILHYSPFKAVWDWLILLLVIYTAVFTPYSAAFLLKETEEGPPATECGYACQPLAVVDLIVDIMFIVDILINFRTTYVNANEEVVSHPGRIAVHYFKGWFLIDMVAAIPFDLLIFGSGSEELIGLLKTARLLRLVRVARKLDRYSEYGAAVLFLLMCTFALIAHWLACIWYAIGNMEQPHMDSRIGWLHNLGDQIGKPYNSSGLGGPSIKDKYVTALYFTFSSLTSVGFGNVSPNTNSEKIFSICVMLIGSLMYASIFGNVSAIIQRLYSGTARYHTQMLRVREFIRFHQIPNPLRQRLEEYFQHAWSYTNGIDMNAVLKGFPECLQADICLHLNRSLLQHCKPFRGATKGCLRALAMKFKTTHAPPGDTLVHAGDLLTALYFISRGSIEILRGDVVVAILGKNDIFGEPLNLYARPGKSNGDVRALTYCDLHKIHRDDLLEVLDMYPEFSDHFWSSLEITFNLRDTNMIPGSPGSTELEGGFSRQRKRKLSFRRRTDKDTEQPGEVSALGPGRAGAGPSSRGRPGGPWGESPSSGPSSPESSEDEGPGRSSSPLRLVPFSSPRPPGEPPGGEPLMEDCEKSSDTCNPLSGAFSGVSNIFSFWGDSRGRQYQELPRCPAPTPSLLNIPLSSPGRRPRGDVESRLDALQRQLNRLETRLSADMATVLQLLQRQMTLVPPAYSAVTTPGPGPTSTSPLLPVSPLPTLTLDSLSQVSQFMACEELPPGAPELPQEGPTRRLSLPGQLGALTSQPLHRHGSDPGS

What is called inhibition is the share of the control response that was lost under treatment. High values mean a response far below the control, low ones a response near the control. Broadly, the MRT is a mean duration of stay, worked out from the concentration-time curve. In general, Tmax refers to the time from dosing to the highest level. Take `COc1cc2nn([C@H]3CC[C@](C)(O)CC3)cc2cc1NC(=O)c1cccc(C)[n+]1[O-]` [Compound 001, 2-((2-((1r,4r)-4-hydroxy-4-methylcyclohexyl)-6-methoxy-2H-indazol-5-yl)carbamoyl)-6-methylpyridine 1-oxide]: in data set [1], the fraction unbound at 5 h, 1 μM was 0.153. Further, in data set [2], the inhibition at 5 min, 30 µM was determined as 5.09%. Also, the “Inhibition rate (%) of TNF-α” value with TNF-α release is reported as 74.00%. Besides, in data set [3], the AUC(0-t) turned out to be 294 µg·h/mL, the AUC(0-inf) was 375 µg·h/mL, the MRT worked out at 15.3 h and the half-life was 11.5 h. Further, in data set [3], the Cmax stood at 24200 ng/mL and the Tmax turned out to be 4 h. In addition, in data set [4], the fraction unbound at 5 h, 1 μM was 0.19.
In the case of `COc1cc2nn(CCC(C)(C)O)cc2cc1NC(=O)c1cccc(C)[n+]1[O-]` [Compound 163, 2-((2-(3-hydroxy-3-methylbutyl)-6-methoxy-2H-indazol-5-yl)carbamoyl)-6-methylpyridine 1-oxide], the fraction unbound at 5 h, 1 μM in data set [1] was 0.194. Besides, the inhibition at 5 min, 30 µM in data set [2] was found to be 8.73%. Further, the “Inhibition rate (%) of TNF-α” value in the data set on TNF-α release came to 71.56%. Further, in data set [3], the AUC(0-t) worked out at 207 µg·h/mL, the AUC(0-inf) amounted to 207 µg·h/mL, the mean residence time MRT was found to be 6.75 h and the half-life is 3.62 h. In data set [3], the Cmax was determined as 25900 ng/mL and the Tmax came to 4 h. Further, in data set [4], the fraction unbound at 5 h, 1 μM is 0.183.
